Data published in patent US20240158446A1, “CYCLIC COMPOUND HAVING SELECTIVE INHIBITORY ACTION ON KRAS OVER HRAS AND NRAS” (CHUGAI SEIYAKU KABUSHIKI KAISHA, priority 2021, published 2024).
Where a SMILES comes first, the peptide text is derived from it. Bridges are numbered along the chain shown (N, C = ends). [ ]: non-standard residue; d: D form. The star is where a group is joined. hPhe(3-Cl-4-CF3) = N[C@@H](CCc1ccc(C(F)(F)F)c(Cl)c1)C(=O)O; NPrPhe(4-CF3) = CCCN[C@@H](Cc1ccc(C(F)(F)F)cc1)C(=O)O; NMeGly(cPent) = CN[C@H](C(=O)O)C1CCCC1; NMeD = CN[C@@H](CC(=O)O)C(=O)O; NMeL = CN[C@@H](CC(C)C)C(=O)O; Morpholide = C1CN(*)CCO1; Ac5c = NC1(C(=O)O)CCCC1; Sar = CNCC(=O)O

Legend:
[1] = test system: human lung cancer strain NCI-H441; assay: cells; details: NCI-H441, 96 h, read-out: NCI-H441 IC50 (nM), NCI-H441 cell proliferation, 4 days, CellTiter-Glo;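 note: cell proliferation inhibition after four days measured by CellTiter-Glo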
[2] = biological target: GDP-bound HRAS wild-type protein (Homo sapiens, UniProt P01112); assay: Binding to HRAS by surface plasmon resonance (SPR), Single Cycle Kinetics; details: ratio of KD for GDP-bound HRAS wild-type protein to KD for KRAS, SPR
[3] = biological target: GDP-bound NRAS wild-type protein (Homo sapiens, UniProt P01111); assay: Binding to NRAS by surface plasmon resonance (SPR), Single Cycle Kinetics; details: ratio of KD for GDP-bound NRAS wild-type protein to KD for KRAS, SPR
Chain of GDP-bound NRAS wild-type protein (P01111 whole entry): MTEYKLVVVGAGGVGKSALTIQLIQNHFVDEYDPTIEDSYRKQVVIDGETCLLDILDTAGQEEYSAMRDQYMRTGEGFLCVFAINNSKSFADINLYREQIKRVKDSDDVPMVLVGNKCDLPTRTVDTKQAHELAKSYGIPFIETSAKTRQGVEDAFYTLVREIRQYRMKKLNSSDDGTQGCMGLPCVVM

Chain of GDP-bound HRAS wild-type protein (P01112 whole entry): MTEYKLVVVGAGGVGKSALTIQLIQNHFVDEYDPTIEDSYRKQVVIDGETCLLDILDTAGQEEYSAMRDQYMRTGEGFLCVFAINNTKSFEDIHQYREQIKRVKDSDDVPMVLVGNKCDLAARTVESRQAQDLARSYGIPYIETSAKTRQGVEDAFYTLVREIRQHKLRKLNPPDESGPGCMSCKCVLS

Row | SMILES | IC50 [1] [nM] | HRAS/KRAS (KD ratio) [2] | NRAS/KRAS (KD ratio) [3]
1 | CCO[C@@H]1C[C@H]2C(=O)NC3(CCC3)C(=O)N(C)[C@@H](C(CC)CC)C(=O)N(C)[C@H](C3CCC3)CC(=O)N(C)[C@@H](CC3CC3)C(=O)N[C@@H]([C@@H](C)CC)C(=O)N(C)CC(=O)N(C)[C@H]3C/C=C\CCN(C3=O)[C@@H](Cc3ccc(C(F)(F)F)cc3)C(=O)N(C)CC(=O)N[C@@H](CCc3cc(F)c(C(F)(F)F)c(F)c3)C(=O)N2C1 [PP1636] | 95.2 | A (a compound having 10 or more and less than 20 is denoted as A) | A (a compound having 10 or more and less than 20 is denoted as A)
2 | CCCN(C)C(=O)[C@@H]1CC(=O)N(C)[C@@H](CC)C(=O)N[C@@H]([C@@H](C)CC)C(=O)N(C)CC(=O)N(C)[C@H]2C/C=C\CCN(C2=O)[C@@H](Cc2ccc(C(F)(F)F)cc2)C(=O)N(C)CC(=O)N[C@@H](CCc2ccc(C(F)(F)F)c(OC)c2)C(=O)N2C[C@H](OCC)C[C@H]2C(=O)NC2(CC(C)(C)C2)C(=O)N(C)[C@@H](C2CCCC2)C(=O)N1C [PP1654] | 2.5 | A (a compound having 10 or more and less than 20 is denoted as A) | A (a compound having 10 or more and less than 20 is denoted as A)
3 | CCO[C@@H]1C[C@H]2C(=O)NC3(CCC3)C(=O)N(C)[C@@H](C3CCCC3)C(=O)N(C)[C@H](C(=O)N(C)CC)CC(=O)N(C)[C@@H](CC3CCC3)C(=O)N[C@@H]([C@@H](C)CC)C(=O)N(C)CC(=O)N(C)[C@H]3C/C=C\CCN(C3=O)[C@@H](Cc3ccc(C(F)(F)F)cc3)C(=O)N(C)CC(=O)N[C@@H](CCc3cc(F)c(C(F)(F)F)c(F)c3)C(=O)N2C1 [PP1667] | 2 | A (a compound having 10 or more and less than 20 is denoted as A) | A (a compound having 10 or more and less than 20 is denoted as A)
4 | CCCC[C@H]1C(=O)N[C@@H]([C@@H](C)CC)C(=O)N(C)CC(=O)N(C)[C@H]2C/C=C\CCN(C2=O)[C@@H](Cc2ccc(C(F)(F)F)cc2)C(=O)N(C)CC(=O)N[C@@H](CCc2cc(F)c(C(F)(F)F)c(F)c2)C(=O)N2C[C@H](F)C[C@H]2C(=O)NC2(CC(C)(C)C2)C(=O)N(C)[C@@H](C2CCCC2)C(=O)N(C)[C@H](C(=O)N(C)C)CC(=O)N1C [PP1693] | 1.1 | A (a compound having 10 or more and less than 20 is denoted as A) | AA (a compound having 20 or more is denoted as AA)
5 | CCO[C@@H]1C[C@H]2C(=O)NC3(CCC3)C(=O)N(C)[C@@H](C3CCCC3)C(=O)N(C)[C@H](C(=O)N(C)CC)CC(=O)N(C)[C@@H](CC(F)(F)F)C(=O)N[C@@H]([C@@H](C)CC)C(=O)N(C)CC(=O)N(C)[C@H]3C/C=C\CCN(C3=O)[C@@H](Cc3ccc(C(F)(F)F)cc3)C(=O)N(C)CC(=O)N[C@@H](CCc3cc(F)c(C(F)(F)F)c(F)c3)C(=O)N2C1 [PP1701] | 3.7 | A (a compound having 10 or more and less than 20 is denoted as A) | A (a compound having 10 or more and less than 20 is denoted as A)
6 | CC[C@H](C)[C@@H]1NC(=O)[C@H](CC)N(C)C(=O)C[C@@H](C(=O)N(C)C)N(C)C(=O)[C@H](C2CCCC2)N(C)C(=O)C2(CCC2)N(C)C(=O)[C@@H]2CCCN2C(=O)[C@H](CCc2cc(F)c(C(F)(F)F)c(F)c2)NC(=O)CN(C)C(=O)[C@H](Cc2ccc(C)cc2)N2CC/C=C\C[C@@H](C2=O)N(C)C(=O)CN(C)C1=O [PP1782] | 6.7 | B (a compound having 3 or more and less than 10 is denoted as B) | A (a compound having 10 or more and less than 20 is denoted as A)
7 | CC[C@H](C)[C@@H]1NC(=O)[C@H](C2CC2)N(C)C(=O)C[C@@H](C(=O)N(C)C)N(C)C(=O)[C@H](C2CCCC2)N(C)C(=O)C2(CCC2)N(C)C(=O)[C@@H]2C[C@@H](C)CN2C(=O)[C@H](CCc2cc(F)c(C(F)(F)F)c(F)c2)NC(=O)CN(C)C(=O)[C@H](Cc2ccc(C)cc2)N2CC/C=C\C[C@@H](C2=O)N(C)C(=O)CN(C)C1=O [PP1788] | 6.2 | B (a compound having 3 or more and less than 10 is denoted as B) | B (a compound having 3 or more and less than 10 is denoted as B)
8 | CC[C@H](C)[C@@H]1NC(=O)[C@H](CC)N(C)C(=O)C[C@@H](C(=O)N(C)CC)N(C)C(=O)[C@H](C2CCCC2)N(C)C(=O)C2(CC(C)(C)C2)NC(=O)[C@@H]2C[C@@H](C)CN2C(=O)[C@H](CCc2cc(F)c(C(F)(F)F)c(F)c2)NC(=O)CN(C)C(=O)[C@H](Cc2ccc(C)cc2)N2CC/C=C\C[C@@H](C2=O)N(C)C(=O)CN(C)C1=O [PP1884] | 17.3 |  | 
9 | CC[C@H](C)[C@@H]1NC(=O)[C@H](CC2CC2)N(C)C(=O)C[C@@H](C(=O)N(C)CC)N(C)C(=O)[C@H](C2CCCC2)N(C)C(=O)C2(CCC2)NC(=O)[C@@H]2C[C@H](C)CN2C(=O)[C@H](CCc2ccc(C(F)(F)F)c(OC)c2)NC(=O)CN(C)C(=O)[C@H](Cc2ccc(C)cc2)N2CC/C=C\C[C@@H](C2=O)N(C)C(=O)CN(C)C1=O [PP1897] | 22.6 |  | 
10 | CCCN1C(=O)CN(C)C(=O)CN(C)C(=O)[C@H]([C@@H](C)CC)NC(=O)[C@H](CC(C)C)N(C)C(=O)C[C@@H](C(=O)N2CCOCC2)N(C)C(=O)[C@H](C2CCCC2)N(C)C(=O)C2(CCCC2)NC(=O)[C@H](C)NC(=O)[C@H](CCc2ccc(C(F)(F)F)c(Cl)c2)NC(=O)CN(C)C(=O)[C@@H]1Cc1ccc(C(F)(F)F)cc1 [PP1914] ([NMeL]I[Sar][Sar][NPrPhe(4-CF3)][Sar][hPhe(3-Cl-4-CF3)]A[Ac5c][NMeGly(cPent)][NMeD]-Morpholide; lactam N-11) | 39.7 |  | 
11 | CCCN(C)C(=O)[C@@H]1CC(=O)N(C)[C@@H](COCC)C(=O)N[C@@H]([C@@H](C)CC)C(=O)N(C)CC(=O)N(C)[C@H]2C/C=C\CCN(C2=O)[C@@H](Cc2ccc(C(F)(F)F)cc2)C(=O)N(C)CC(=O)N[C@@H](CCc2cc(F)c(C(F)(F)F)c(F)c2)C(=O)N2C[C@@H](C)C[C@H]2C(=O)NC2(CCC2)C(=O)N(C)[C@@H](C2CCCC2)C(=O)N1C [PP2002] | 15.7 |  | 
12 | CCO[C@@H]1C[C@H]2C(=O)NC3(CCC3)C(=O)N(C)[C@@H](C3CCCC3)C(=O)N(C)[C@H](C(=O)N(C)CC)CC(=O)N(C)[C@@H](C(C)C)C(=O)N[C@@H]([C@@H](C)CC)C(=O)N(C)CC(=O)N(C)[C@H]3C/C=C\CCN(C3=O)[C@@H](Cc3ccc(C(F)(F)F)cc3)C(=O)N(C)CC(=O)N[C@@H](CCc3ccc(C(F)(F)F)c(OC)c3)C(=O)N2C1 [PP2019] | 4.5 |  | 
13 | CCCN(C)C(=O)[C@@H]1CC(=O)N(C)[C@@H](CCOC)C(=O)N[C@@H]([C@@H](C)CC)C(=O)N(C)CC(=O)N(C)[C@H]2C/C=C\CCN(C2=O)[C@@H](Cc2ccc(C(F)(F)F)cc2)C(=O)N(C)CC(=O)N[C@@H](CCc2cc(F)c(C(F)(F)F)c(F)c2)C(=O)N2C[C@H](OCC)C[C@H]2C(=O)NC2(CC(C)(C)C2)C(=O)N(C)[C@@H](C2CCCC2)C(=O)N1C [PP2033] | 11.8 |  | 
